From patent publication US11179452B2, “Antigen specific multi epitope vaccines” (priority 2006, dated 2021)
No end group written: not given here.

Columns and labels:
Format in all cases: cell-based, human
PBL [1] = assay: Proliferation of PBL, DC indirect presentation (peptide-pulsed autologous DC); conditions: for PBL Index of stimulation (SI) via DC: naive donors, CPM sample / CPM control, representative of 5 experiments; for IS (SI of the peptides as indicated in Table 7): one out of five experiments; for IS (SI of the peptides as indicated in Table 7) / Optimal dose via DC: six donors; for Optimal dose via DC: optimal dose required for PBL activation; for Optimal dose via DC / Peak of Proliferation (Hours) via DC: average of 5 experiments; for Peak of Proliferation (Hours) via DC: visual inspection by light microscopy daily during 5 days
Method: (§1) Human PBMC were separated from buffy coat samples of naive donors using Ficoll UNI-SEPmaxi tube. Separated cells were suspended in RPMI medium supplemented with 10% FCS, L-Glutamine, Sodium Pyruvate, MEM-EAGLE non-essential amino-acids, HEPES and Gentamycin Sulphate (Bet-Haemek Industries, IL) and cultivated for 4 h at 37° C. in a culture dish (Corning 150 mm×25 mm). Adherent cells were collected and cultured for 7 days in serum free DCCM-1 medium supplemented with L-Glutamine, huIL-4 (1000 IU/ml) (Cytolab IL) and GM-CSF-80 ug/ml (Cytolab IL). On day seven floating cells were collected and loaded with 50 ug/ml of examined peptide for 18 h at 37° C.
(§2) Proliferation analysis was conducted in three different methods. In all three methods, plates were cultured for 3-5 days under visual control and then 0.5 […]Cu/well of 3[H] (Amersham) was added for additional culture of to 18 h at 37° C. In the last step, plates were harvested and the radioactive counts were measured in a □ counter. • 1. DC indirect presentation: In the first method, 100 µl of 2×10^6 thawed PBL were placed in U-shape Bottom 96 well plate (Nunc) with RPMI medium supplemented with 5% H AB serum, L-Glutamine, Sodium Pyruvate, MEM-EAGLE non-essential amino-acids, HEPES and Gentamycin. At the next stage 100 µl of 25×10^4 peptide-pulsed DC were added to each three wells of PBL and underwent proliferation analysis as described above. • 2. PBL direct presentation: In the 2nd method, 100 µl of 2×10^6 PBL were placed in Flat Bottom 96 well plates (Corning) and stimulated with different concentrations (0.05 ug/ml-2 ug/ml) of peptides. In the next step the cells underwent proliferation analysis as described above. • 3. PBMC direct presentation: In third method PNMC were used under similar conditions as described for the second method.
In the first set of experiments, the 21mer ImMucin, its different 9mer epitopes and other control epitopes (Table 3) were evaluated in proliferation assays with the aim of finding their optimal mode of presentation, stimulated dose as well as their peak of activity (time wise).
To evaluate the most efficient method for priming of PBLs with the different peptides, the following methods were compared:
a. In-direct presentation of the peptide via Autologues-pulsed DC
(§3) Five experiments were performed according to the protocol described in material and methods with buffy-coat enriched PBLs obtained from six different naive donors (obtained from the Israeli blood bank).

PBL [2] = assay: Proliferation of PBL, direct presentation of peptide without APC; conditions: for PBL Index of stimulation (SI) Direct no APC: naive donors, representative of 5 experiments; for Optimal dose Direct no APC: optimal dose required for PBL activation, six donors; for Optimal dose Direct no APC / Peak of Proliferation (Hours) Direct no APC: average of 5 experiments; for Peak of Proliferation (Hours) Direct no APC: visual inspection daily during 5 days
Method: In all three methods, plates were cultured for 3-5 days under visual control and then 0.5 □Cu/well of 3[H] (Amersham) was added for additional culture of to 18 h at 37° C. […] DC indirect presentation: In the first method, 100 µl of 2×10^6 thawed PBL were placed in U-shape Bottom 96 well plate (Nunc) with RPMI medium supplemented with 5% H AB serum, L-Glutamine, Sodium Pyruvate, MEM-EAGLE non-essential amino-acids, HEPES and Gentamycin. At the next stage 100 µl of 25×10^4 peptide-pulsed DC were added to each three wells of PBL and underwent proliferation analysis as described above. • 2. PBL direct presentation: In the 2nd method, 100 µl of 2×10^6 PBL were placed in Flat Bottom 96 well plates (Corning) and stimulated with different concentrations (0.05 ug/ml-2 ug/ml) of peptides. In the next step the cells underwent proliferation analysis as described above. • 3. PBMC direct presentation: In third method PNMC were used under similar conditions as described for the second method.
Direct presentation of peptides to PBL without any APC

PBMC = assay: Proliferation, direct presentation of peptide via PBMC (monocytes); conditions: for PBL Index of stimulation (SI) via PBMC: naive donors, representative of 5 experiments; for Optimal dose via PBMC: optimal dose required for PBL activation, six donors; for Optimal dose via PBMC / Peak of Proliferation (Hours) via PBMC: average of 5 experiments; for Peak of Proliferation (Hours) via PBMC: visual inspection daily during 5 days
Method: as §2
b. Direct presentation of the peptides via PBMC i.e. monocytes
as §3

PBL [3] = assay: ELISA of cytokine secretion by PBL stimulated once with peptide-pulsed DC; conditions: peptide DC ratio 16:1, one out of five experiments, six donors
Method: as §1
(§4) Cytokine release was studied during the culture of stimulated T-cells. The evaluated samples were collected from the T cell culture medium on day 2, 3, and 5 and stored until use at −20° C.
(§5) […] of the selected capture antibody (e.g. anti-Hu IFN-Gamma, or anti-Hu TNF-alfa or anti IL-2) were added to each well at the final concentration of 5 μg/ml in PBS. Plates were incubated for 2 h at R.T. or over night at 4° C. Next, […] of blocking solution were added for an incubation of 2 h at R.T. […] of evaluated samples were added in duplicate into 2 wells for 2 hours at RT. After 2 h of incubation at R.T plates were washed λ4 times in washing solution. In the next step, a Biotin-conjugated detection antibody (relevant to coated antibody) was added at a final concentration of 10 μg/ml in total volume of 100 μl for 1 h at R.T. Finally, 100 μl/well working dilution (1:10000 in Blocker solution) of Streptavidin-HRP were added to each well and incubated for 1 h at R.T.
(§6) Plates were washed λ6 times with PBS-Tween (0.4%) and 100 μl/well of TMB/E Solution (CHEMICON, Catalog #ES001) was added. The plates were then exposed until blue color appeared in the wells of the positive control and no color was detected in the blank wells. To stop the color reaction, 50 μl/well of 10% of Sulfuric acid was added. The plates were counted in ELISA-Reader using a 450 nm filter.

[4] = test system: ImMucin specific T-cell subpopulation; assay: Proliferation of the ImMucin-specific T-cell subpopulation after three stimulations; conditions: one out of two experiments, four donors
From the text: (§7) Thawed PBLs underwent 1st stimulation with ImMucin pulsed Autologues DC at a ratio of 20:1 and cultured for 7 days in dedicated T cell Medium. T cell medium contained RPMI medium supplemented with 10% FCS, L-Glutamine, Sodium Pyruvate, MEM-EAGLE non-essential amino-acids, HEPES and Gentamycin Sulphate (Bet-Haemek Industries, IL) as well as with 50 IU/ml of recombinant IL-7 (Cytolab IL). For the second stimulation, PBL were transferred to adherent autologues ImMucin-pulsed PBMC and cultured for additional 5 days in T cell Medium. At the end of the 5 days, medium was partial replaced with fresh medium containing 1 ug/ml of ImMucin and 50 IU/ml IL-2 for a third stimulation of 48 h at 37° C. Following the last stimulation ImMucin T cell line was checked for immune activation properties.
as §2
(§8) For that purpose, an enriched ImMucin-specific T cell subpopulation was produced via repeated stimulation with ImMucin. The specificity of the subpopulation for ImMucin, as well as to the other VXL epitopes, was examined using proliferation assays, cytokine release assays, FACS analysis in which the percentage and type of cells enriched during the enrichment process was analyzed, and using a CTL assay against selected target cells.
(§9) For producing the specific T cell subpopulation PBL were stimulated three times for 7, 5 and 2 days with ImMucin presented via DC and PBMC. Following the 3rd stimulation the cells were evaluated against the different VXL epitopes.

[5] = test system: T-Cell specific subpopulation (Clones); assay: ELISA of cytokine secretion by the T-cell specific subpopulation (clones) stimulated with peptides; conditions: two experiments, four donors
From the text: as §7, §4, §5, §6, §8, §9

[6] = test system: lymphocytes from naive donors; assay: Proliferation assay, kinetics of lymphocyte activation as summarised in text (presentation mode not stated); conditions: summary of five experiments
Method: as §2
A different parameter for assessing the properties of ImMucin and the other VXL-peptide epitopes is by analyzing the time until a maximal peak of activity occurs and the optimal dose for maximal stimulation. Maximal peak of PBL activation is determined when <50% of the PBLs appear in clumps. In these experiments, the kinetic (time) in the proliferation of lymphocytes from the six naive donors stimulated at a fix dose of 0.05-1 ug/ml by ImMucin and other VXL-Peptides, was observed.

## LLLTVLTVV [VXL-1, LLLTVLTVV]
PBL [1]; listed as VLX-1
  PBL Index of stimulation (SI) via DC: 3.2
PBL [1]
  IS (SI of the peptides as indicated in Table 7): 3.2
  Optimal dose via DC: 12.5-25 × × 10e6/well
  Peak of Proliferation (Hours) via DC: 120 h
PBL [2]
  PBL Index of stimulation (SI) Direct no APC: 0
  Optimal dose Direct no APC: No Influence
  Peak of Proliferation (Hours) Direct no APC: No proliferation
PBMC
  PBL Index of stimulation (SI) via PBMC: 1.59
  Optimal dose via PBMC: 0.05 to 1 µg/mL
  Peak of Proliferation (Hours) via PBMC: 120 h
PBL [3]
  IFN-gamma: 0 ng/mL
  IL-2: 0 ng/mL
[4]
  IS (Average): 3.05
  IS (Range): 1.66-4.4
[5]
  IL-2 % of clones: 83%
  INF-gamma % of clones: 33%
  TNF-Alfa % of clones: 83%
  TNF-Alfa Range: 2.7 to 9.8 ng/mL
[6]
  peak of proliferation / maximum stimulation: 120 h

## LLLLTVLTV [VXL-2, LLLLTVLTV]
PBL [1]
  PBL Index of stimulation (SI) via DC: 2.2
  IS (SI of the peptides as indicated in Table 7): 2.2
  Optimal dose via DC: 12.5-25 × × 10e6/well
  Peak of Proliferation (Hours) via DC: 120 h
PBL [2]
  PBL Index of stimulation (SI) Direct no APC: 0
  Optimal dose Direct no APC: No Influence
  Peak of Proliferation (Hours) Direct no APC: No proliferation
PBMC
  PBL Index of stimulation (SI) via PBMC: 1.2
  Optimal dose via PBMC: 0.05 to 1 µg/mL
  Peak of Proliferation (Hours) via PBMC: 120 h
PBL [3]
  IFN-gamma: 0 ng/mL
  IL-2: 0 ng/mL
  TNF-Alfa: 0 ng/mL
[4]
  IS (Average): 3.275
  IS (Range): 1.45-5.1
[5]
  IL-2 % of clones: 50%
  IL-2 Range: 2.53 to 10.2 ng/mL
  INF-gamma % of clones: 25%
  INF-gamma Range: 1.4 to 8.9 ng/mL
  TNF-Alfa % of clones: 83%
  TNF-Alfa Range: 1.9 to 9.4 ng/mL
[5]; listed as VXL2
  IL-2 Range ng/ml: high
  INF-gamma Range ng/ml: high
[6]
  peak of proliferation / maximum stimulation: 120 h
